The target of one assay is T1, EPAC2 (Mus musculus, UniProt Q9EQZ6).
T1 sequence (Q9EQZ6 1-1011): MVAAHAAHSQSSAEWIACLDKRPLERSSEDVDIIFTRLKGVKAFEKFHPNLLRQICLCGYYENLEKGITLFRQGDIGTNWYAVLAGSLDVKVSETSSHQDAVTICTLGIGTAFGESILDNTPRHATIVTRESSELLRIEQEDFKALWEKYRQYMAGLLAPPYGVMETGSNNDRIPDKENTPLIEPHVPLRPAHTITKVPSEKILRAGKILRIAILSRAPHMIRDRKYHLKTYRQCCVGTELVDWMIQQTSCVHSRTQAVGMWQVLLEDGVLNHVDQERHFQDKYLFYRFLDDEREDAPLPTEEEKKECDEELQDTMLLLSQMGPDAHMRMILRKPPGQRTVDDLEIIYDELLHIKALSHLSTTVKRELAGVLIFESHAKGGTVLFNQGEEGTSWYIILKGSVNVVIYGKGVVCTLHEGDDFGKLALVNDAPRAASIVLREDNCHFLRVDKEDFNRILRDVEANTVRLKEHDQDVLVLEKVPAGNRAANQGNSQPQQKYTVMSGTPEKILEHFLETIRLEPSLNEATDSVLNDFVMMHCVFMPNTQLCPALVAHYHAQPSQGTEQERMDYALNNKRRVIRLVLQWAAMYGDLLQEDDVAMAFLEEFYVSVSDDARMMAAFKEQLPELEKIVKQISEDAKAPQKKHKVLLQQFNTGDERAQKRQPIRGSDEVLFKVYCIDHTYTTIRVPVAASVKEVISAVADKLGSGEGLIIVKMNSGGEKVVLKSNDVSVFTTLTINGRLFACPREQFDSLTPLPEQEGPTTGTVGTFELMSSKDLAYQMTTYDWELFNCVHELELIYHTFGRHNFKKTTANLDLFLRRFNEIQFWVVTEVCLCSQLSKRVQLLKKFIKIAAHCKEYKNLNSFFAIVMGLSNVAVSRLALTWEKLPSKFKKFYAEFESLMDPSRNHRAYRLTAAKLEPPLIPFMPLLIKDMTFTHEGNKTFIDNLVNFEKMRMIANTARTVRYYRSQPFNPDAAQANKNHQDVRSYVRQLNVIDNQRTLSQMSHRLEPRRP
As to the kind of experiment: 8-NBD-cAMP competition binding to EPAC2. The protocol:
Primary screen is performed in black 96-well or 384-well microplates. As an example, 50 nM EPAC2 solution is prepared in 20 mM Tris buffer, pH 7.5, containing 150 mM NaCl, 1 mM EDTA, and 1 mM […]. […] Sample is dispensed into plate and test compounds added from 96-well mother plates. […] Fluorescence intensity signal from 8-NBD was recorded at room temperature (rt) before and after tested compounds are added using SpectaMaxM2 microplate reader (Molecular Devices, Silicon Valley, Calif., USA) with excitation/emission wavelengths set at 470/540 nm.

The test system of another assay is AsPC-1 and PANC-1 cells. The experiment in a line: Cell adhesion assay on collagen I matrix. It is filed as cell-based. As to conditions: pre-treatment 5 minutes, 10 μM 007-AM. How it is done:
FIG. 13 ESI-09 inhibits EPAC1-mediated adhesion of PDA cells on collagen I. AsPC-1 and PANC-1 cells were stimulated with vehicle or 10 μM 007-AM after treatment with the indicated concentrations of ESI-09 for 5 minutes. Bars represent mean±s.d.
(§1) It has been recently reported that EPAC1 is over-expressed in pancreatic adenocarcinoma (Lorenz et al. (2008) Pancreas 37: 102-103). However, the functional role of EPAC1 elevation in this neoplasm is not clear. The inventors sought to employ ESI-09 to determine the role of EPAC1 signaling in pancreatic cancer. […] In order to determine if the observed impact on cell migration is EPAC1 specific, the effect of suppressing EPAC1 expression on AsPC-1 and PANC-1 migration using RNAi was examined. […] To further determine how ESI-09 inhibits PDA cell migration and invasion, a cell adhesion assay was performed using a collagen I matrix. […] To determine the in vivo anti-metastatic effect of ESI-09, MIA PaCa-2 stably expressing luciferase were orthotopically implanted into the pancreas of athymic nude mice. The mice were randomly divided into two groups and treated with vehicle or ESI-09 (50 mg/kg per day, oral gavage), respectively. The growth and metastasis of the tumors were monitored by weekly bioluminescence imaging using the IVIS bioluminescence imaging system.

The subject of the next assay is MIA PaCa-2. As to the kind of experiment: Orthotopic MIA PaCa-2 pancreatic cancer metastasis model. Type of assay: in vivo. As to conditions: athymic nude mice; 50 mg/kg per day, oral gavage; weekly bioluminescence imaging; 50 mg/kg/day. How it is done: FIG. 14. ESI-09 inhibits PDA metastasis in vivo. MIA PaCa-2 stably expressing luciferase was orthotopically implanted into the pancreas of athymic nude mice. The mice were randomly divided into two groups and treated with vehicle or ESI-09 (50 mg/kg, oral gavage), respectively. The growth and metastasis of the tumors were monitored by weekly bioluminescence imaging using the IVIS bioluminescence imaging system.
as §1, with “The mice were randomly divided into two groups and treated with vehicle or ESI-09 (50 mg/kg per day, oral gavage), respectively.” left out

Another assay has as its system R. australia. As to the kind of experiment: R. australia infection of HUVEC cells, immunofluorescence. Type of assay: cell-based. As to conditions: 24 hours post infection. The protocol: FIG. 22. ESI-09 treatment suppresses cellular entry of R. australia. HUVEC cells treated with vehicle or ESI-09 were infected with R. australia. The levels of R. australia (Red) and EPAC1 (Green) were monitored with immunofluorescence staining 24 hours post infection.
To investigate the mechanism of EPAC1 inhibition-mediated protection of R. australia infection, HUVEC cells treated with vehicle or ESI-09 were infected with R. australia.

“Also recorded” adds a separate entry of the source.

One may read the IC50 as the point on the concentration scale where inhibition reaches its midpoint. Turning to `CC(C)(C)c1cc(C(=O)C(C#N)=NNc2cccc(Cl)c2)no1` [ESI-09, 3-(5-Tert-Butyl-Isoxazol-3-Yl)-2-[(3-Chlorophenyl)-Hydrazono]-3-Oxo-Propionitrile], the “Relative Potency (RA)” value on EPAC2 (RA = IC50, cAMP/IC50, compound) turned out to be 3.9. Besides, the 50% inhibitory concentration (IC50) at EPAC2 (read-out: Apparent IC50, competing with 8-NBD-cAMP in binding EPAC2) was determined as 10 ± 1.2 µM. Further, in the assay on AsPC-1 and PANC-1 cells, the “007-AM induced cell adhesion” value is “decreased 007-AM induced cell adhesion dose-dependently; also recorded: inhibits”. For the same compound, the PDA metastasis result with MIA PaCa-2 was “reduced; also recorded: inhibits”. Moreover, the “number of intracellular R. australia (cellular entry)” value with R. australia is reported as “dramatically reduced; also recorded: suppresses”.

For the origin of these results see US9539256B2 (THE BOARD OF REGENTS OF THE UNIVERSITY OF TEXAS SYSTEM, priority 2012, dated 2017).
